# From patent US20250339566A1, “INHIBITORS OF FIBROBLAST ACTIVATION PROTEIN” (UNIVERSITEIT ANTWERPEN, priority 2022, published 2025)
# How the values were obtained:
# Type in all cases: biochemical
# human FAP = molecular target: T1, human FAP (Homo sapiens, UniProt Q12884); experiment: FAP IC50 measurement (Z-Gly-Pro-AMC); conditions: Z-Gly-Pro-AMC 50 μM, pH 8, 15 min pre-incubation
# T1 construct: the human secretion signal was replaced with the HoneyBee mellitin secretion signal; honeybee melittin secretion signal (replaces the native signal) (N); made in house; host or cells: Sf9 insect cells (baculovirus), purified from supernatant
# T1 sequence (Q12884 26-760 limits assumed): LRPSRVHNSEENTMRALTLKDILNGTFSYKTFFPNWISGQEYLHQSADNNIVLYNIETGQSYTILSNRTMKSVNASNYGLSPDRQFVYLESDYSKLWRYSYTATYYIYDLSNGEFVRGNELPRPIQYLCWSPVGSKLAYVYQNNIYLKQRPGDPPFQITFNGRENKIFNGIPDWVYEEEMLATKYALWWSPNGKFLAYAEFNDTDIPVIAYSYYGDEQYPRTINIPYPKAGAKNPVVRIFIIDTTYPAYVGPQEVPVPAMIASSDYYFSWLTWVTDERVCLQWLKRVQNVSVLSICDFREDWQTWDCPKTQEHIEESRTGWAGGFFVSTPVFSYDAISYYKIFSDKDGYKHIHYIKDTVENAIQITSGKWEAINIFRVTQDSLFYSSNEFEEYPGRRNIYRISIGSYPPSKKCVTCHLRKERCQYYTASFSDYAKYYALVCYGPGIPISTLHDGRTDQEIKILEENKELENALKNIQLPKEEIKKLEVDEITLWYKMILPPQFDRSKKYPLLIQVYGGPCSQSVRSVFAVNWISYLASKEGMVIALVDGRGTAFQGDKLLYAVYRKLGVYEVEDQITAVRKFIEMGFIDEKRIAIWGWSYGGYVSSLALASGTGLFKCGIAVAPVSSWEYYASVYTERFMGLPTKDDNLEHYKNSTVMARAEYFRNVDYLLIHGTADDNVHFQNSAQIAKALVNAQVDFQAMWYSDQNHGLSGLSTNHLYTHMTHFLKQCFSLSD
# Source text: (§1) Used Enzymes in these Assays: • A gateway-entry clone for human FAP was purchased from Dharmacon (Accession number DQ891423) and the human secretion signal was replaced with the HoneyBee mellitin secretion signal. For transfection and expression of FAP in Sf9 insect cells the C-terminal BaculoDirect kit from LifeTechnologies was used. The enzyme was purified from the supernatant of the insect cells using immobilized Ni-chelating chromatography (GE healthcare, Diegem, Belgium), followed by anion-exchange chromatography using a 1 mL HiTrap Q and size exclusion chromatography using the Superdex 200 column (GE healthcare, Diegem, Belgium). • Human recombinant PREP was expressed in BL21(DE3) cells and purified using immobilized Co-chelating chromatography (GE healthcare), followed by anion-exchange chromatography on a 1 ml Mono Q column (GE healthcare). • DPP4 was purified from human seminal plasma. • Gateway-entry clones for human DPP8 and DPP9 were purchased from Dharmacon (Accession numbers DQ891733 and DQ892325 respectively). For transfection and expression of DPP8 and DPP9 in Sf9 insect cells the N-terminal BaculoDirect kit from LifeTechnologies was used. The enzymes were purified using immobilized Ni-chelating chromatography (GE healthcare, Diegem, Belgium), followed by anion-exchange chromatography using a 1 mL Mono Q (GE healthcare, Diegem, Belgium). • Recombinant human DPP2 was purchased from R&D.
# (§2) Eight concentrations of inhibitors/probe were tested. The final DMSO concentration was kept constant during the experiment to exclude any effects. Inhibitors were pre-incubated with the enzyme for 15 minutes at 37° C., afterwards the substrate was added and the velocities of AMC release were measured kinetically at λex=380 nm, λem=465 nm for at least 10 minutes at 37° C. […] Eight concentrations of inhibitors were tested. The final DMSO concentration in kept constant during the experiment to exclude any effects. Inhibitors were pre-incubated with the enzyme for 15 minutes at 37° C., afterwards the substrate was added and the velocities of AMC release were measured kinetically at λex=380 nm, λem=465 nm for at least 10 minutes at 37° C. […] At least eight different inhibitor concentrations were used. The final DMSO concentration is kept constant during the experiment to exclude any effects. Inhibitors were pre-incubated with the enzyme for 15 minutes at 37° C., afterwards the substrate was added and the velocities of pNA release were measured kinetically at 405 nm for at least 10 minutes at 37° C. Measurements were done on the Infinite 200 (Tecan Group Ltd.) and the Magellan software was used to process the data. • For DPP2: Initial velocity measurements were carried out. Lys-Ala-pNA was used as the substrate at a concentration of 1 mM at pH 5.5 (100 mM NaAc, 10 mM EDTA, 14 μg/mL aprotinin). Inhibitors were tested at one concentration, 5 μM, being the final concentration in the well. Inhibitors were pre-incubated with the enzyme for 15 minutes at 37° C., afterwards the substrate was added and the velocities of pNA release were measured kinetically at 405 nm for at least 10 minutes at 37° C. Measurements were done on the Infinite 200 (Tecan Group Ltd.) and the Magellan software was used to process the data.
# Human recombinant PREP = molecular target: T2, Human recombinant PREP (Homo sapiens, UniProt P48147); experiment: PREP IC50 measurement (N-succinyl-Gly-Pro-AMC); conditions: for Selectivity index PREP: IC50(PREP)/IC50(FAP); for IC50: N-succinyl-Gly-Pro-AMC 250 μM, pH 7.4
# T2 construct: made in house; host or cells: E. coli BL21(DE3)
# T2 sequence (P48147 1-710): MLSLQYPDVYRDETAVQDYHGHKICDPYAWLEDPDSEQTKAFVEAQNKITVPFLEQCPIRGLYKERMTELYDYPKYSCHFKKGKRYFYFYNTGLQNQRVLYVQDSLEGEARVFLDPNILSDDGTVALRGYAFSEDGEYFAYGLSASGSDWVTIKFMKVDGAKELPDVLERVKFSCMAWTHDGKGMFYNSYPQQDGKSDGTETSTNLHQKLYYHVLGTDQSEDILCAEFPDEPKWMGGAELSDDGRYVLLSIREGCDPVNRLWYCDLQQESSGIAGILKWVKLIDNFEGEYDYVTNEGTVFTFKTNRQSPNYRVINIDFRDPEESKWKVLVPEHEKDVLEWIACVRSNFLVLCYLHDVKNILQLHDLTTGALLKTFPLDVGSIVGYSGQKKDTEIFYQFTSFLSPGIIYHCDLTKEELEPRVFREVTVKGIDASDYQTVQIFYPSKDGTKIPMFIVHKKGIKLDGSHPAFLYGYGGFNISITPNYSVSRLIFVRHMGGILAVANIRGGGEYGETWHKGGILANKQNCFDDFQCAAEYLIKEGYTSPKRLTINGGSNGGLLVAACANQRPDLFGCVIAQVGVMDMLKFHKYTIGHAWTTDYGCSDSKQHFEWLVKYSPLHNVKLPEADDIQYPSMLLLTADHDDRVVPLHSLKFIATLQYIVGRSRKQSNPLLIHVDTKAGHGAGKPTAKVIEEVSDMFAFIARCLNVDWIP
# Source text: as §1, §2
# DPP4 = molecular target: T3, DPP4 (Homo sapiens, UniProt P27487); experiment: DPP4 IC50 measurement (Ala-Pro-pNA); conditions: for IC50: Ala-Pro-pNA 25 μM, pH 7.4; for Selectivity index DPP4: IC50(DPP4)/IC50(FAP)
# T3 construct: DPP4 was purified from human seminal plasma; from tissue; host or cells: human seminal plasma
# Source text: as §1, §2
# human DPP8 = molecular target: T4, human DPP8 (Homo sapiens, UniProt Q6V1X1); experiment: DPP8 IC50 measurement (Ala-Pro-pNA); conditions: for IC50: Ala-Pro-pNA 300 μM, pH 7.4, read-out: DPP8 IC50; for Selectivity index DPP8: IC50(DPP8)/IC50(FAP)
# T4 construct: made in house; host or cells: Sf9 insect cells (baculovirus)
# Source text: as §1, §2
# human DPP9 = molecular target: T5, human DPP9 (Homo sapiens, UniProt Q86TI2); experiment: DPP9 IC50 measurement (Ala-Pro-pNA); conditions: for IC50: Ala-Pro-pNA 150 μM, pH 7.4; for Selectivity index DPP9: IC50(DPP9)/IC50(FAP)
# T5 construct: made in house; host or cells: Sf9 insect cells (baculovirus)
# Source text: as §1, §2
# T4 sequence (Q6V1X1 whole entry): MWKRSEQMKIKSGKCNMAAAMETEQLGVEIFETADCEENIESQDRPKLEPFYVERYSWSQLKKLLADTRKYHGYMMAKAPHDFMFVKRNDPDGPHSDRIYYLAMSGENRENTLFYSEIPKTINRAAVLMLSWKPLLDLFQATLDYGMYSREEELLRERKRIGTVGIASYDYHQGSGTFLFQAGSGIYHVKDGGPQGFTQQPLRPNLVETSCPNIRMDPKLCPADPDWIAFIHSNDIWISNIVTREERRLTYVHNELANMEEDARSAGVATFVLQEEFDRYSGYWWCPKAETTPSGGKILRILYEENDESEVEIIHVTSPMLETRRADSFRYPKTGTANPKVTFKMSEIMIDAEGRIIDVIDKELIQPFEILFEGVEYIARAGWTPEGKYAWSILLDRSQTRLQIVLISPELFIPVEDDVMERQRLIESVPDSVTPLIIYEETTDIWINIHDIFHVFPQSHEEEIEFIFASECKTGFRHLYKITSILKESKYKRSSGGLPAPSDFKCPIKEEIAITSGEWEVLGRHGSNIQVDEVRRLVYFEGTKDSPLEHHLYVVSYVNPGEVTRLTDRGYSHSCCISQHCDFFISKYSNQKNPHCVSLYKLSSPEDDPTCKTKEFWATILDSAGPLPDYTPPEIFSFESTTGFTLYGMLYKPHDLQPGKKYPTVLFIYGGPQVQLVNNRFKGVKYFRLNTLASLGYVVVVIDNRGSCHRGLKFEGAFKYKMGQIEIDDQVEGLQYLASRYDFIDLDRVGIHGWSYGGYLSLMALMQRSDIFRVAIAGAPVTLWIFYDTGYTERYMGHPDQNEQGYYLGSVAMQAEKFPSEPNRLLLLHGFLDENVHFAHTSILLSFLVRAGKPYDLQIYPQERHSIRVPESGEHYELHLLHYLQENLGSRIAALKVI
# T5 sequence (Q86TI2 whole entry): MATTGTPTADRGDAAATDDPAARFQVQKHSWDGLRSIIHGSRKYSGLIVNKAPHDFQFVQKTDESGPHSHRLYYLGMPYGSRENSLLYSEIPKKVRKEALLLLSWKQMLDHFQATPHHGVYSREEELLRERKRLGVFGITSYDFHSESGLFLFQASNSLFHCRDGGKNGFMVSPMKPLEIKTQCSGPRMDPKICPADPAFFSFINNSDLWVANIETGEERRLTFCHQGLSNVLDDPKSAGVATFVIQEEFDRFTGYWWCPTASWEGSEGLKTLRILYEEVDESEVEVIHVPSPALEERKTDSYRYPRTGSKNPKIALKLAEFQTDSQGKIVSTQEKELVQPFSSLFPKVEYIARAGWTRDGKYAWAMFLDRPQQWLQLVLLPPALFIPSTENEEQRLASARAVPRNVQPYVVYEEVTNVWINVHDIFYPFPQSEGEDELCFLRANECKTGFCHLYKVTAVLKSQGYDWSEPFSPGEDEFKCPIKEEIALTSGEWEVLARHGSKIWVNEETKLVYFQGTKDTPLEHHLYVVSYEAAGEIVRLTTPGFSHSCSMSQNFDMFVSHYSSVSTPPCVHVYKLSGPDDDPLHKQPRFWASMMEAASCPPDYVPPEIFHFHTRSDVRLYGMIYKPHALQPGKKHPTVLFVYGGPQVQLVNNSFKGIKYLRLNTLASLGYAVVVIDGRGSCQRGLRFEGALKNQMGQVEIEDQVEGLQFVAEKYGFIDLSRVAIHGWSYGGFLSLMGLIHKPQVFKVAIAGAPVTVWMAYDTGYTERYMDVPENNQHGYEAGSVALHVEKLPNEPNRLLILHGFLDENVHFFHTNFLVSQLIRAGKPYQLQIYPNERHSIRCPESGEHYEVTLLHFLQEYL
# T3 sequence (P27487 whole entry): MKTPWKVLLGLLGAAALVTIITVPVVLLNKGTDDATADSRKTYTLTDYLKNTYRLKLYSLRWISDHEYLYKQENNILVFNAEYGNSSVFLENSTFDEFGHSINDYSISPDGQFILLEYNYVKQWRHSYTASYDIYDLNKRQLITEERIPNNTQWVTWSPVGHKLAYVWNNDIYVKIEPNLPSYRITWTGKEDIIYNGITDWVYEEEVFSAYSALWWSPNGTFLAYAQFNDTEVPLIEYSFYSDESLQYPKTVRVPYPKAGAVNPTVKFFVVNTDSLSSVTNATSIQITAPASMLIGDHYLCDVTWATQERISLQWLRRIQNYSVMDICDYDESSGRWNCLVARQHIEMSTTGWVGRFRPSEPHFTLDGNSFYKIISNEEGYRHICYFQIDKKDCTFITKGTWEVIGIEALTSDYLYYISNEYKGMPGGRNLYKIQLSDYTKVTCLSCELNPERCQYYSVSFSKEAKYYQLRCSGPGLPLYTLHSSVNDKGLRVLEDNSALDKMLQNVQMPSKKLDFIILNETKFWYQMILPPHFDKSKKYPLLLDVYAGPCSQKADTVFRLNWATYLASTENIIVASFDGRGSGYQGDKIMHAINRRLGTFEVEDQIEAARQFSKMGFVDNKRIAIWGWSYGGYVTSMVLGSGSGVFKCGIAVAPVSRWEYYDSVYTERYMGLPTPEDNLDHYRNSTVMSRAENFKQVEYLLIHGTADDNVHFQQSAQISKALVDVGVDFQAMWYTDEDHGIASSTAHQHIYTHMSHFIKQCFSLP
Compound,IC50 (human FAP) [µM],Selectivity index PREP (Human recombinant PREP; 4-methylbenzenesulfonate),"Selectivity index PREP (Human recombinant PREP; listed as UAMC-0005086, 4-methylbenzenesulfonate)",IC50 (Human recombinant PREP) [µM],IC50 (DPP4) [µM],Selectivity index DPP4 (DPP4),IC50 (human DPP8) [µM],Selectivity index DPP8 (human DPP8),IC50 (human DPP9) [µM],Selectivity index DPP9 (human DPP9),Selectivity index PREP (Human recombinant PREP)
"C[N+](C)(CF)CCOc1ccc2nccc(C(=O)NCC(=O)N3CC(F)(F)C[C@H]3C#N)c2c1.Cc1ccc(S(=O)(=O)[O-])cc1 [Compound 4b, (S)-2-((4-((2-(2-cyano-4,4-difluoropyrrolidin-1-yl)-2-oxoethyl)carbamoyl)quinoline-6-yl)oxy)-N-(fluoromethyl)-N,N-dimethylethan-1-aminium 4-methylbenzenesulfonate]",0.00253 ± 0.00013,4853,>4800,> 10,> 10,>4800,> 10,>4800,> 10,>4800,
"C[N+](C)(C)CCOCCOCCOc1ccc2nccc(C(=O)NCC(=O)N3CC(F)(F)C[C@H]3C#N)c2c1.Cc1ccc(S(=O)(=O)[O-])cc1 [Compound 7, (S)-2-(2-(2-((4-((2-(2-cyano-4,4-difluoropyrrolidin-1-yl)-2-oxoethyl)carbamoyl)quinolin-6-yl)oxy)ethoxy)ethoxy)-N,N,N-trimethylethan-1-aminium 4-methylbenzenesulfonate]",0.00027 ± 2e-05,,,> 10,> 10,>36000,> 10,>36000,> 10,>36000,>36000
"C[N+]1(CCCOc2ccc3nccc(C(=O)NCC(=O)N4CC(F)(F)C[C@H]4C#N)c3c2)CCN(C(=O)c2ccc(F)cc2)CC1 [Compound 14, (S)-1-(3-((4-((2-(2-cyano-4,4-difluoropyrrolidin-1-yl)-2-oxoethyl)carbamoyl)quinolin-6-yl)oxy)propyl)-4-(4-fluorobenzoyl)-1-methylpiperazin-1-ium]",0.00095 ± 0.0001,,,> 10,> 10,>10000,> 10,>10000,> 1,>1000,>10000
"CC(C)(C)OC(=O)N1CC[N+](C)(CCCOc2ccc3nccc(C(=O)NCC(=O)N4CC(F)(F)C[C@H]4C#N)c3c2)CC1 [Compound 11, (S)-4-(tert-butoxycarbonyl)-1-(3-((4-((2-(2-cyano-4,4-difluoropyrrolidin-1-yl)-2-oxoethyl)carbamoyl)quinolin-6-yl)oxy)propyl)-1-methylpiperazin-1-ium iodide]",0.00044 ± 5e-05,,,> 10,> 10,>22000,> 1,>2200,0.62 ± 0.08,>2200,>22000
